In BindingDB's records for doi:10.1016/j.bmcl.2004.01.047 (University of Huddersfield, 2004):

Assay: Binding affinity against metallo-beta-lactamase bacillus cereus(BCII)

CC1CS[C@H](c2nc(O)c(-c3ccccc3)[nH]c2=S)NC1C(=O)O (stereo partly drawn) [(R)-5-Methyl-2-(6-oxo-5-phenyl-3-thioxo-piperazin-2-yl)-3,6-dihydro-2H-[1,3]thiazine-4-carboxylic acid anion]
Ki: 29 µM
